In US20080287375A1, “Selective Glycosidase Inhibitors, Methods of Making Inhibitors, and Uses Thereof” (SIMON FRASER UNIVERSITY, priority 2005, published 2008):
“Also recorded” adds a separate entry of the source. Marks after values point to notes of the source that are not given here. Each block holds one compound with its values, some of them ahead of it.

Legend:
[1] = test system: O-GlcNAc modified proteins in rat tissues; assay: Oral availability: tissue O-GlcNAc levels in rats fed inhibitor in chow; assay type: in vivo
Method: To determine if the inhibitor 9c is orally available, it was incorporated into the chow (Lab Diet 5001 Rodent Diet, PMI Nutrition International, LLC). To make the rat chow, 600 g of the ground chow was mixed with 355 ml of water and 5 μL of the inhibitor dissolved in ethanol. Small pieces were then prepared with a pasta machine (Pasta Express, Creative) and dehydrated overnight at 37° C. (Snackmaster Dehydrator, American Harvest). Five sets of chow were made with the following amounts of inhibitor: 0 mg kg^−1 days^−1, 100 or 1000 mg kg^−1 days^−1 of the deprotected (polar) inhibitor, and 100 or 1000 mg kg^−1 day^−1 of the protected (non-polar) inhibitor. […] Ten five-week old healthy Sprague-Dawley rats (two per set of food) were then allowed to feed on the rat chow for three days. The animals were then sacrificed and tissues were collected, homogenized, and analyzed as described above.

[2] = test system: human placental β-hexosaminidase; assay: Inhibition of β-hexosaminidase, substrate MU-GlcNAc (5), Dixon plots
O-GlcNAcase [3] = molecular target: T1, O-GlcNAcase (Homo sapiens, UniProt O60502); conditions: for Selectivity Ratio (β-Hex KI/O-GlcNAcase KI): Table 2
T1 sequence (O60502 1-916): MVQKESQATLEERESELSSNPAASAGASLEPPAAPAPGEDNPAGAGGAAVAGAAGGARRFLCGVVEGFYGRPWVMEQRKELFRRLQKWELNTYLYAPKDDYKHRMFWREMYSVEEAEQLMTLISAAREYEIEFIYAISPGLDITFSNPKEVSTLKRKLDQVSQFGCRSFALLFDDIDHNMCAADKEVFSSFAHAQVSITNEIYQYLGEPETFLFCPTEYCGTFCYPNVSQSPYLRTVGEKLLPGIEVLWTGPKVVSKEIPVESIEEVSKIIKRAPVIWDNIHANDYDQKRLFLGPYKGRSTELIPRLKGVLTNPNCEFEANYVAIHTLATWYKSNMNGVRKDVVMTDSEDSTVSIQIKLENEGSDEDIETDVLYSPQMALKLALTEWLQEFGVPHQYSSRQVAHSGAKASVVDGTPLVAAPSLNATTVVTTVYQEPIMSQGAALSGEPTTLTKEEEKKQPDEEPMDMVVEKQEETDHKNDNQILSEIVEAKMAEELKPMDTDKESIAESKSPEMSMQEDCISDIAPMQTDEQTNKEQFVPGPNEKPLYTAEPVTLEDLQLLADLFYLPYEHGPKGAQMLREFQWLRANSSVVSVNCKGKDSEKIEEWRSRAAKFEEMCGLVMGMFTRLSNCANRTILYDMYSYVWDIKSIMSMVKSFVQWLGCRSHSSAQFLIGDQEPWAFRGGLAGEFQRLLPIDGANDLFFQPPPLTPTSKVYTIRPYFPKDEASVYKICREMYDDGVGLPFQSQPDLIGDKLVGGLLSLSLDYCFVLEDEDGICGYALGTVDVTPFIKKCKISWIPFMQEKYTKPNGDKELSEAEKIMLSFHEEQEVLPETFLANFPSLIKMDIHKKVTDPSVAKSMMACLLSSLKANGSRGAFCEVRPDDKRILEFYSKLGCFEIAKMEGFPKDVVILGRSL

O-GlcNAcase [4] = molecular target: T1, O-GlcNAcase; assay: biochemical
[5] = test system: human placental β-hexosaminidase; assay: Inhibition of β-hexosaminidase, substrate pNP-GlcNAc, Dixon plots; conditions: for Ki: read-out: β-Hexosaminidase KI, Table 3, substrate pNP-GlcNAc 0.5 mM, pH 4.25
O-GlcNAcase [6] = molecular target: T1, O-GlcNAcase; assay: Inhibition of O-GlcNAcase, substrate pNP-GlcNAc, Dixon plots; conditions: for Selectivity Ratio (β-Hexosaminidase KI/O-GlcNAcase KI): Table 3
human β-hexosaminidase = assay: Michaelis-Menten kinetics of β-hexosaminidase catalyzed hydrolysis of 4-methylumbelliferyl GlcNAc substrate analogues; assay type: biochemical; conditions: 37° C., pH 4.25
Excerpt: These compounds were first tested with the lysosomal human β-hexosamindase since this enzyme is known to proceed via a mechanism involving anchimeric assistance (FIG. 2A). Although Michaelian saturation kinetics were not observed for all substrates (Table 1), Vmax[E]o/KM, which is proportional to the second order rate constant governing the enzyme catalyzed reaction, could be determined from the initial slope of the Michaelis-Menten plot (FIG. 2A Inset). […] As expected, decreasing the basicity of the carbonyl oxygen has a deleterious effect on catalysis.

O-GlcNAcase [7] = molecular target: T1, O-GlcNAcase; assay: Michaelis-Menten kinetics of O-GlcNAcase catalyzed hydrolysis of 4-methylumbelliferyl GlcNAc substrate analogues; assay type: biochemical; conditions: 37° C., pH 6.5
Excerpt: For O-GlcNAcase the value of Vmax[E]0/KM is also dependant on the extent of fluorine substitution but the slope is more shallow (ρ=−0.42±0.08, FIG. 2C).

[8] = rats fed inhibitor in food for three days
[9] = read-out: β-Hexosaminidase KI, Table 2, substrate 5 at 0.64 mM, pH 4.25, Dixon plots
[10] = read-out: KI, β-hexosaminidase, human lysosomal β-hexosaminidase

SMILES: CCCC1=N[C@@H]2[C@@H](OC(C)=O)[C@H](OC(C)=O)[C@@H](COC(C)=O)O[C@@H]2S1 [9c (protected), 3,4,6-tri-O-acetyl-1,2-dideoxy-2′-propyl-α-D-glucopyranoso-[2,1-d]-Δ2′-thiazoline]
- cellular levels of O-GlcNAc modified proteins in brain tissue, oral 100 mg/kg/day ([1]; rats fed inhibitor in chow for three days): marked increases
- cellular levels of O-GlcNAc modified proteins in brain tissue, oral 1000 mg/kg/day ([1]; rats fed inhibitor in chow for three days, compared with 100 mg/kg/day): even greater
- O-GlcNAc modified proteins in brain, muscle, pancreas, fat and spleen, oral 100 mg kg^−1 day^−1 (FIG. 12 legend) [1, 8]: large increases
- O-GlcNAc modified proteins in tissues, oral 1000 mg kg^−1 days^−1 (FIG. 12 legend) [1, 8]: slightly greater increases

- increase in KI for β-hexosaminidase compared to parent NAG-thiazoline (9a) [2]: 460 fold
- Ki [2, 9]: 32 µM
- inhibition of O-GlcNAcase, in words (O-GlcNAcase [3]): potent inhibitors
- selectivity for O-GlcNAcase over β-hexosaminidase, in words (O-GlcNAcase [3]): remarkable selectivity
- Selectivity Ratio (β-Hex KI/O-GlcNAcase KI) (O-GlcNAcase [3]): 270
- Ki (O-GlcNAcase [4]): 0.12 µM
SMILES: CCC1=N[C@@H]2[C@@H](O)[C@H](O)[C@@H](CO)O[C@@H]2S1 [Compound 9b, 1,2-dideoxy-2′-ethyl-α-D-glucopyranoso-[2,1-d]-Δ2′-thiazoline]

- Ki [2, 9]: 4600 µM
- selectivity ratio for O-GlcNAcase over β-hexosaminidase (O-GlcNAcase [3]): 3100 fold
- Selectivity Ratio (β-Hex KI/O-GlcNAcase KI) (O-GlcNAcase [3]): 3100
- Ki (O-GlcNAcase [4]): 1.5 µM
SMILES: CCCCC1=N[C@@H]2[C@@H](O)[C@H](O)[C@@H](CO)O[C@@H]2S1 [Compound 9d, 1,2-dideoxy-2′-butyl-α-D-glucopyranoso-[2,1-d]-Δ2′-thiazoline]

- Ki [2, 9]: 11000 µM
- Selectivity Ratio (β-Hex KI/O-GlcNAcase KI) (O-GlcNAcase [3]): 100
- Ki (O-GlcNAcase [4]): 57 µM
SMILES: CCCCCC1=N[C@@H]2[C@@H](O)[C@H](O)[C@@H](CO)O[C@@H]2S1 [Compound 9e, 1,2-dideoxy-2′-pentyl-α-D-glucopyranoso-[2,1-d]-Δ2′-thiazoline]

- Ki [2, 9]: 720 µM
- selectivity for O-GlcNAcase over β-hexosaminidase, in words (O-GlcNAcase [3]): remarkable selectivity
- selectivity ratio for O-GlcNAcase over β-hexosaminidase (O-GlcNAcase [3]): 700 fold
- Selectivity Ratio (β-Hex KI/O-GlcNAcase KI) (O-GlcNAcase [3]): 700
- Ki (O-GlcNAcase [4]): 1.6 µM
SMILES: CC(C)C1=N[C@@H]2[C@@H](O)[C@H](O)[C@@H](CO)O[C@@H]2S1 [Compound 9f, 1,2-dideoxy-2′-isopropyl-α-D-glucopyranoso-[2,1-d]-Δ2′-thiazoline]
- inhibition of O-GlcNAcase, in words (O-GlcNAcase [3]): good inhibitors; also recorded: potent inhibitors

- increase in KI for β-hexosaminidase compared to parent PUGNAc [5]: 33 fold
- Ki [5]: 1.2 µM
- Ki (O-GlcNAcase [6]): 1.2 µM
- Selectivity Ratio (β-Hexosaminidase KI/O-GlcNAcase KI) (O-GlcNAcase [6]): 1
SMILES: CCC(=O)N[C@H]1C(=NOC(=O)Nc2ccccc2)O[C@H](CO)[C@@H](O)[C@@H]1O [Compound 22a]

- Ki [5]: 26 µM
- Ki (O-GlcNAcase [6]): 2.4 µM
- Selectivity Ratio (β-Hexosaminidase KI/O-GlcNAcase KI) (O-GlcNAcase [6]): 11
SMILES: CCCC(=O)N[C@H]1C(=NOC(=O)Nc2ccccc2)O[C@H](CO)[C@@H](O)[C@@H]1O [Compound 22b, O-(2-deoxy-2-butamido-D-glucopyranosylidene)amino N-Phenylcarbamate]

- Ki [5]: 220 µM
- Ki (O-GlcNAcase [6]): 40 µM
- Selectivity Ratio (β-Hexosaminidase KI/O-GlcNAcase KI) (O-GlcNAcase [6]): 6
SMILES: CCCCC(=O)NC1C(=NOC(=O)Nc2ccccc2)OC(CO)C(O)C1O (stereo not shown) [Compound 22c]

- Ki [5]: > 900 µM
- Ki (O-GlcNAcase [6]): 210 µM
- Selectivity Ratio (β-Hexosaminidase KI/O-GlcNAcase KI) (O-GlcNAcase [6]): ≧5
SMILES: CCCCCC(=O)N[C@H]1C(=NOC(=O)Nc2ccccc2)O[C@H](CO)[C@@H](O)[C@@H]1O [Compound 22d, O-(2-deoxy-2-hexamido-D-glucopyranosylidene)amino N-Phenylcarbamate]

- Ki [5]: 20 µM
- Ki (O-GlcNAcase [6]): 9 µM
- Selectivity Ratio (β-Hexosaminidase KI/O-GlcNAcase KI) (O-GlcNAcase [6]): 2
SMILES: CC(C)C(=O)N[C@H]1C(=NOC(=O)Nc2ccccc2)O[C@H](CO)[C@@H](O)[C@@H]1O [Compound 22e, O-(2-deoxy-2-isobutamido-D-glucopyranosylidene)amino N-Phenylcarbamate]

- Ki [5]: > 1200 µM
- Ki (O-GlcNAcase [6]): 190 µM
- Selectivity Ratio (β-Hexosaminidase KI/O-GlcNAcase KI) (O-GlcNAcase [6]): ≧6
SMILES: CC(C)CC(=O)N[C@H]1C(=NOC(=O)Nc2ccccc2)O[C@H](CO)[C@@H](O)[C@@H]1O [Compound 22f, O-(2-deoxy-2-isovaleramido-D-glucopyranosylidene)amino N-Phenylcarbamate]

- Ki [2, 10]: 1200 µM
- Ki [2, 9]: 1200 µM
- Selectivity Ratio (β-Hex KI/O-GlcNAcase KI) (O-GlcNAcase [3]): 0.8
- Ki (O-GlcNAcase [4]): 1500 µM
SMILES: CC(=O)N[C@H]1C(O)O[C@H](CO)[C@@H](O)[C@@H]1O (stereo partly shown) [GlcNAc, N-acetylglucosamine, reference compound]

- Km (human β-hexosaminidase): 880 ± 50 µM
- Vmax [E]o (human β-hexosaminidase): 8.3 ± 0.2 µmol/min/mg
- Km (O-GlcNAcase [7]): 430 ± 40 µM
- Vmax [E]o (O-GlcNAcase [7]): 0.74 ± 0.02 µmol/min/mg
SMILES: CC(=O)N[C@H]1[C@H](Oc2ccc3c(C)cc(=O)oc3c2)O[C@H](CO)[C@@H](O)[C@@H]1O [MuGlcNAc, reference compound]

SMILES: Cc1cc(=O)oc2cc(O[C@@H]3O[C@H](CO)[C@@H](O)[C@H](O)[C@H]3NC(=O)CF)ccc12 [MuGlcNAc-F1, 4-Methylumbelliferyl 2-deoxy-2-fluoroacetamido-β-D-glucopyranoside]
- Km (human β-hexosaminidase): 3800 ± 400 µM
- Vmax [E]o (human β-hexosaminidase): 3.3 ± 0.2^b μmol min^−1 mg^−1
- Km (O-GlcNAcase [7]): 490 ± 60 µM
- Vmax [E]o (O-GlcNAcase [7]): 0.60 ± 0.03 µmol/min/mg

SMILES: Cc1cc(=O)oc2cc(O[C@@H]3O[C@H](CO)[C@@H](O)[C@H](O)[C@H]3NC(=O)C(F)F)ccc12 [MuGlcNAc-F2, 4-Methylumbelliferyl 2-deoxy-2-difluoroacetamido-β-D-glucopyranoside]
- Km (O-GlcNAcase [7]): 450 ± 50 µM
- Vmax [E]o (O-GlcNAcase [7]): 0.16 ± 0.01 µmol/min/mg

SMILES: Cc1cc(=O)oc2cc(O[C@@H]3O[C@H](CO)[C@@H](O)[C@H](O)[C@H]3NC(=O)C(F)(F)F)ccc12 [MuGlcNAc-F3, 4-Methylumbelliferyl 2-deoxy-2-trifluoroacetamido-β-D-glucopyranoside]
- Km (O-GlcNAcase [7]): 380 ± 30 µM
- Vmax [E]o (O-GlcNAcase [7]): 0.033 ± 0.001 µmol/min/mg

- Ki [5]: 0.036 µM
- Ki [2, 10]: 0.036 µM
- Ki [2, 9]: 0.036 µM
SMILES: CC(=O)N[C@H]1/C(=N/OC(=O)Nc2ccccc2)O[C@H](CO)[C@@H](O)[C@@H]1O [PUGNAc, O-(2-acetamido-2-deoxy-D-glucopyranosylidene)amino N-phenylcarbamate]
